Source: paper PMC3849007 (Journal of Experimental & Clinical Cancer Research : CR, 2013)

What was measured:
M1 muscarinic receptor = target: T1, M1 muscarinic receptor (Homo sapiens, UniProt P11229); assay: Cerep ExpresSProfile receptor screen, M1; conditions: data not shown, read-out: % inhibition of ligand binding, M1 muscarinic receptor
T1 construct: purchased Cerep (ExpresSProfile screen, contract service)
Description: (§1) To investigate the molecular bases of cardio toxicity, the agent was tested for its potential to interact with a panel of 54 pharmacological receptors, the majority being human recombinant receptors (Cerep ExpresSProfile screen) (http://www.cerep.fr).

M3 muscarinic receptor = target: T2, M3 muscarinic receptor (Homo sapiens, UniProt P20309); assay: Cerep ExpresSProfile receptor screen, M3; conditions: data not shown, read-out: % inhibition of ligand binding, M3 muscarinic receptor
T2 construct: purchased Cerep (ExpresSProfile screen, contract service)
Description: as §1

[1] = tested on: duplex (D) DNA hairpin, 5'-biotin-CGA3T3C(CT)2GA3T3CG (DNA, hairpin) CGAAATTTCCTCTGAAATTTCG; assay: surface plasmon resonance; conditions: 200 mM KCl; 10 mM HEPES, 3 mM EDTA, 0.01% P20, pH 7.4
[2] = set-up: method as in doi:10.1016/S0040-4020(01)90102-4; conditions: cited from earlier work
[3] = target: T3, hERG (human Ether-a-go-go Related Gene) tail current (Homo sapiens, UniProt Q12809); assay: hERG tail current inhibition, patch clamp assay; format: cell-based
T3 construct: expressed in transfected cells; host or cells: HEK293
Description: (§2) For hERG study, HEK293 cells were cultured (1–7 days) in DMEM/GlutaMax-1 + 10% FBS and were plated on collagen-coated dishes (about 2×10^4 cells/dish). The cell was held at -80 mV. A 50-millisecond pulse to -40 mV was delivered to measure the leaking currents, which were subtracted from the tail currents online. […] This paradigm was delivered once every 5 seconds to monitor the current amplitude. After the current amplitude stabilized, the test compound was delivered to the extracellular medium by a rapid solution changer perfusion system. During perfusion, the cell was repetitively stimulated with the protocol described above, and the current amplitude was continuously monitored. Data were acquired and analyzed by using pClamp (Axon Instruments), and Excel (Microsoft), and are reported as mean and individual values. The degree of inhibition (%) was obtained by measuring the tail current amplitude before and after drug superfusion (the difference current was normalized to control and multiplied by 100 to obtain the percent of inhibition). […] The concentration-response relationship of each compound was constructed from the percentage reductions of current amplitude by sequential concentrations. β2-adrenergic receptor CHO expressing cells were used for the receptor inhibition assay as described. The results are expressed as a percent of inhibition of control specific binding (100 - (measured specific binding/control specific binding) × 100)) obtained in the presence of the test compounds. The specific ligand binding to the receptors is defined as the difference between the total binding and the nonspecific binding determined in the presence of an excess of unlabelled ligand. All the in-vivo experiments were carried out at the Regina Elena Cancer Institute. All procedures involving animals and care were performed in compliance with our institutional animal care guidelines and with international directives (directive 2010/63/EU of the European parliament and of the council; Guide for the Care and Use of Laboratory Animals, United States National Research Council, 2011).

hERG = target: T4, hERG (Homo sapiens, UniProt Q12809); assay: hERG tail current inhibition, patch clamp assay; format: cell-based; conditions: human, HEK293 cells (hERG study), 10 μM, HEK293 cells, read-out: hERG % inhib. (10 μM)
T4 construct: expressed in transfected cells; host or cells: HEK293
Description: as §2

[4] = tested on: human tumor xenografted nude mice; set-up: method as in PMID 19010844; conditions: cited from earlier work
M2 muscarinic receptor = target: T5, M2 muscarinic receptor (Homo sapiens, UniProt P08172); assay: Cerep ExpresSProfile receptor screen, M2; conditions: data not shown, read-out: % inhibition of ligand binding, M2 muscarinic receptor
T5 construct: purchased Cerep (ExpresSProfile screen, contract service)
Description: as §1

telomerase = target: telomerase; set-up: method as in PMID 15304549; conditions: Trap assay; read-out: telomerase inhibition IC50; cited from earlier work
NCI60 panel = NCI60 panel growth inhibition; format: cell-based, human
[5] = tested on: γH2AX in BJ-EHLT fibroblasts; assay: Immunofluorescence for γH2AX (DNA damage response); format: cell-based, human; conditions: 0.5 μM, 24 hrs
Description: Cells were fixed in 2% formaldehyde and permeabilized in 0.25% Triton X100 in PBS for 5 min at room temperature. For immunolabeling, cells were incubated with primary antibody, then washed in PBS and incubated with the secondary antibodies. The following primary antibodies were used: pAb and mAb anti-TRF1 (Abcam Ltd.; Cambridge UK); mAb (Upstate, Lake Placid, NY) and pAb anti-γH2AX (Abcam). The following secondary antibody were used: TRITC conjugated Goat anti Rabbit, FITC conjugated Goat anti Mouse (Jackson ImmunoResearch Europe Ltd., Suffolk, UK). Fluorescence signals were recorded by using a Leica DMIRE2 microscope equipped with a Leica DFC 350FX camera and elaborated by a Leica FW4000 deconvolution software (Leica, Solms, Germany). This system permits to focus single planes inside the cell generating 3D high-resolution images. For quantitative analysis of γH2AX positivity, 200 cells on triplicate slices were scored. For TIF’s analysis, in each nucleus a single plane was analyzed and at least 50 nuclei per sample were scored.

BJ-hTERT fibroblasts = assay: Proliferation assay, normal telomerised fibroblasts; format: cell-based, human; conditions: 0.5 μM, culture day 2 to 8
Description: BJ fibroblasts expressing hTERT (BJ-hTERT) or hTERT and SV40 early region (BJ-EHLT), were obtained as previously reported. Cells were grown in Dulbecco Modified Eagle Medium (D-MEM, Invitrogen Carlsbad, CA, USA) supplemented with 10% fetal calf serum, 2 mM L-glutamin and antibiotics.
5 × 10^4 cells were seeded in 60-mm Petri plates (Nunc, MasciaBrunelli, Milano, Italy) and 24 h after plating, 0.5 μM of freshly dissolved compound was added to the culture medium. Cell counts (Coulter Counter, Kontron Instruments, Milano, Italy) and viability (trypan blue dye exclusion) were determined daily, from day 2 to day 8 of culture.

T3 sequence (Q12809 whole entry): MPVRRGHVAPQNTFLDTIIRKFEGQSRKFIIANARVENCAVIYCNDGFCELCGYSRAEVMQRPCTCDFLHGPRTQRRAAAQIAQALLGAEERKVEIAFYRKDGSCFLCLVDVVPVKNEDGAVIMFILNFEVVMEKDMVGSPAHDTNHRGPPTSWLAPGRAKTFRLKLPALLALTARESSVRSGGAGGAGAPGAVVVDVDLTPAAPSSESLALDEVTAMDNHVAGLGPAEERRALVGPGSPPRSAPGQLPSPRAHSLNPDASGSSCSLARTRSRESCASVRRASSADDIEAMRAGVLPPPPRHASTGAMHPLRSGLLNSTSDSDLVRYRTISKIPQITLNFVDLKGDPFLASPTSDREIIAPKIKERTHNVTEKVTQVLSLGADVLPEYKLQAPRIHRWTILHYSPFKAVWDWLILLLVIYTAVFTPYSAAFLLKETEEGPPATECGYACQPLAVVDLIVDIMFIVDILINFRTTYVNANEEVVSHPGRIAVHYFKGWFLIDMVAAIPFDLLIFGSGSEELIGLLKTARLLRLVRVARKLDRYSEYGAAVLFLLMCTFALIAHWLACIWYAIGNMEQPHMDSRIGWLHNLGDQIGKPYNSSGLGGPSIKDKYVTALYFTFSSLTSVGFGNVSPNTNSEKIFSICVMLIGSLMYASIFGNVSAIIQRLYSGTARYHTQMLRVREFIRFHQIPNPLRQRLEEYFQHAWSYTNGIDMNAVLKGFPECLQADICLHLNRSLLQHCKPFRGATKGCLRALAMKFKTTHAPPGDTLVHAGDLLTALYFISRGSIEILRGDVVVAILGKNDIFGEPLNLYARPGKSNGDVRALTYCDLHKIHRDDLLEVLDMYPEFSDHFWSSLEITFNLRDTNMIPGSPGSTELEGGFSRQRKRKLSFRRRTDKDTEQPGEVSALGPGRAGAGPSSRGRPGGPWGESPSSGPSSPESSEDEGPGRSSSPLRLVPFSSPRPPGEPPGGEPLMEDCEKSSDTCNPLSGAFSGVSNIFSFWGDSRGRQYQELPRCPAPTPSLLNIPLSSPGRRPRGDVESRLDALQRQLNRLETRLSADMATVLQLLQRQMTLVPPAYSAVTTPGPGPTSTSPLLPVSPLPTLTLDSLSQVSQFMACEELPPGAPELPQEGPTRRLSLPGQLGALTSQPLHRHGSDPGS
T4 sequence (Q12809 whole entry): as above
T5 sequence (P08172 whole entry): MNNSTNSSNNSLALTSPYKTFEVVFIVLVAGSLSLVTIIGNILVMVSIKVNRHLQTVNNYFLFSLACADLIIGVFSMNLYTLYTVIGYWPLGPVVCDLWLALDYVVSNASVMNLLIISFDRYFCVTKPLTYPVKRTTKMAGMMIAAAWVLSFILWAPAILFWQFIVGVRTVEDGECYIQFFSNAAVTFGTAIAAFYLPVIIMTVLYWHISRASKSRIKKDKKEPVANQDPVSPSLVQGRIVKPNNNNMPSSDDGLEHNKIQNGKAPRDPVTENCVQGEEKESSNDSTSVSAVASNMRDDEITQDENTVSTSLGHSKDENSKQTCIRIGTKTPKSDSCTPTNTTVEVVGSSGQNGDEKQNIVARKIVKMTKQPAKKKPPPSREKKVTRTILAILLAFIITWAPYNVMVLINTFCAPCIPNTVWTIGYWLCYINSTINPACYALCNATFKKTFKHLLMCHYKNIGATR
T1 sequence (P11229 whole entry): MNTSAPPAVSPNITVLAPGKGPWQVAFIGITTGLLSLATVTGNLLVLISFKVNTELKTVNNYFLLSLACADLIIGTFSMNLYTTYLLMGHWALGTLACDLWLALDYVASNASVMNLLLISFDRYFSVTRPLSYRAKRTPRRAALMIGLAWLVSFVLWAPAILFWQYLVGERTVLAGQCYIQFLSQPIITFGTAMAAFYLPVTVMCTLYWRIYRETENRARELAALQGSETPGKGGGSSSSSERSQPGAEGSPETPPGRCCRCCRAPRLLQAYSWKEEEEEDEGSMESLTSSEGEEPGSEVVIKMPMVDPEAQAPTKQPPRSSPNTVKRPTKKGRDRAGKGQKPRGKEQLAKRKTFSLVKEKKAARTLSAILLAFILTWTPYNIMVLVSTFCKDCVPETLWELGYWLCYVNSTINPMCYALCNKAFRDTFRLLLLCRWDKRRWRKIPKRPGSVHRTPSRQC
T2 sequence (P20309 whole entry): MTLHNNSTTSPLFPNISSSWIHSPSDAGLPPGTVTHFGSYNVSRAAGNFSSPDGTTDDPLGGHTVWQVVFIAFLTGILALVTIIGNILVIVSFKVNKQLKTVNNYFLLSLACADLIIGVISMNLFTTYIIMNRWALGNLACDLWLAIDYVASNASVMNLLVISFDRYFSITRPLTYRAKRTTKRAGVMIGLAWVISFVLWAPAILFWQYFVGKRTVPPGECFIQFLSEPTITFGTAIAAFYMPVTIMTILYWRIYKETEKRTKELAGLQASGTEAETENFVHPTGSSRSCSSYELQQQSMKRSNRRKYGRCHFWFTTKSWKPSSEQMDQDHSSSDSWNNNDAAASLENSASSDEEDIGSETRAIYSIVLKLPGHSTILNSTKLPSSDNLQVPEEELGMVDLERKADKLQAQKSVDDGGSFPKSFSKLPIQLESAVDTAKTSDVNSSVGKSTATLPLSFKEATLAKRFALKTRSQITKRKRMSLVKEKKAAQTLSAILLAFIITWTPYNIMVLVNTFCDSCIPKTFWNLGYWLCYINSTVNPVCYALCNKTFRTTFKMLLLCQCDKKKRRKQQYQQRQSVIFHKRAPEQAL

Compound | inhibition at 1 µM (M1 muscarinic receptor) [%] | inhibition at 1 µM (M3 muscarinic receptor) [%] | K [1] [M⁻¹] | solubility [2] | IC50 [3] [µM] | inhibition at 10 µM (hERG) [%] | toxic deaths or body weight loss ([4]; efficacious doses, during or after treatment) | histological analysis of organs and tissues ([4]; end of treatment) | haemodynamic effect just after administration ([4]; treated vs control mice, with heart rate and cardiac output decrease) | inhibition at 1 µM (M2 muscarinic receptor) [%] | IC50 (telomerase) [µM] | GI50 (NCI60 panel; Homo sapiens, NCI data, read-out: Mean GI50 value from the NCI60 panel) [µM] | effect on cell proliferation in a panel of different histotype tumor cell lines (NCI60 panel; several human cancer cell lines) | percentage of cells positive for γH2AX [5] | inhibition of cell proliferation in normal telomerized fibroblasts (BJ-hTERT fibroblasts)
Cc1cc2c3c([n+](C)c4ccc(F)cc4c3c1)-c1cc(F)ccc1N2C [Compound 1, 3,11-Difluoro-6,8,13-trimethyl-8H-quino[4,3,2-kl]acridinium metho-sulfate] | > 95 | > 95 | 600000 | high solubility | 0.2 | 100 | no toxic deaths or body weight loss | no evidence of lesions or morphological alterations | marked but reversible hypotension | > 95 | 0.33 |  |  |  | 
CC(=O)Nc1ccc2c(c1)c1cccc3c1c([n+]2C)-c1ccccc1N3C [Compound 3, 3-acetylamino-8,13-dimethyl-8H-quino[4,3,2-kl]-acridinium iodide] |  |  | 700000 |  | 18 | 21 |  |  |  |  |  | 81.3 | maintained an anti-proliferative effect | less potent than the lead compound | did not induce inhibition of cell proliferation
